Assays:
Type in all cases: in vivo
Sunflower = test: Test C preemergence; details: scale 0 to 100, 0 no effect, 100 complete control
[1] = system: barnyardgrass (Echinochloa crus-galli); test: Test B preemergence
Method in brief: (§1)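 Pre: seeded pots sprayed, chemical in non-phytotoxic solvent/surfactant mix. Post: plants 2–18 cm, 1–4 leaf, same formulation. Greenhouse 13–15 d; visual % control vs untreated, 0–100 scale.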

rice (Oryza saliva) [2] = test: Test B preemergence
Method in brief: as §1

[3] = system: giant foxtail (Setaria faberii); test: Test B preemergence
Method in brief: as §1

[4] = system: morning glory (Ipomoea hederacea); test: Test B preemergence
Method in brief: as §1

[5] = system: cocklebur (Xanthium strumarium); test: Test B preemergence
Method in brief: as §1

corn (Zea mays) [6] = test: Test B preemergence
Method in brief: as §1

[7] = system: velvetleaf (Abutilon theophrasti); test: Test B preemergence
Method in brief: as §1

[8] = system: crabgrass (Digitaria sanguinalis); test: Test B preemergence
Method in brief: as §1

[9] = system: Surinam grass (Brachiaria decumbens); test: Test B preemergence
Method in brief: as §1

[10] = system: pigweed (Amaranthus retroflexus); test: Test B preemergence
Method in brief: as §1

[11] = system: lambsquarters (Chenopodium album); test: Test B preemergence
Method in brief: as §1

Nightshade = test: Test C preemergence; details: visual evaluation after 12 to 14 days
[12] = system: barnyardgrass (Echinochloa crus-galli); test: Test C flooded paddy test; details: for Barnyardgrass plant response rating: scale 0 to 100, 0 no effect, 100 complete control
Method in brief: (§2)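 Visual injury score, 0 (no effect) to 100 (complete control), relative to controls. Paddy plants treated at 2-leaf stage; greenhouse hold 12–14 d before rating.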

rice (Oryza saliva) [13] = test: Test C flooded paddy test; details: for Rice plant response rating: scale 0 to 100, 0 no effect, 100 complete control
Method in brief: as §2

[14] = system: smallflower flatsedge (Cyperus difformis); test: Test C flooded paddy test; details: for Flatsedge plant response rating: Flooded Paddy, scale 0 to 100, 0 no effect, 100 complete control; for Plant response rating, Flatsedge: flooded paddy test, scale 0 to 100 (0 no effect, 100 complete control)
Method in brief: as §2

[15] = system: duck salad (Heteranthera limosa); test: Test C flooded paddy test; details: for Ducksalad plant response rating: scale 0 to 100, 0 no effect, 100 complete control
Method in brief: as §2

[16] = system: barnyardgrass (Echinochloa crus-galli); test: Test B postemergence; details: 13 to 15 days
Method in brief: as §1

[17] = system: wheat (Triticum aestivum); test: Test B postemergence; details: 13 to 15 days
Method in brief: as §1

[18] = system: giant foxtail (Setaria faberii); test: Test B postemergence; details: 13 to 15 days
Method in brief: as §1

[19] = system: morning glory (Ipomoea hederacea); test: Test B postemergence; details: 13 to 15 days
Method in brief: as §1

corn (Zea mays) [20] = test: Test B postemergence; details: 13 to 15 days
Method in brief: as §1

[21] = system: velvetleaf (Abutilon theophrasti); test: Test B postemergence; details: 13 to 15 days
Method in brief: as §1

[22] = system: Surinam grass (Brachiaria decumbens); test: Test B postemergence; details: 13 to 15 days
Method in brief: as §1

[23] = system: pigweed (Amaranthus retroflexus); test: Test B postemergence; details: 13 to 15 days
Method in brief: as §1

[24] = system: blackgrass (Alopecurus myosuroides); test: Test B postemergence; details: 13 to 15 days
Method in brief: as §1

[25] = Preemergence, Rate 500 g/ha, scale 0 to 100, 0 no effect, 100 complete control
[26] = preemergence, Rate 125 g/ha, scale 0 to 100, 0 no effect, 100 complete control
[27] = flooded paddy test, Rate 62 g/ha, scale 0 to 100 (0 no effect, 100 complete control)
[28] = flooded paddy test, Rate 125 g/ha, scale 0 to 100 (0 no effect, 100 complete control)
[29] = Rate 125 g/ha, scale 0 (no effect) to 100 (complete control)
[30] = Rate 500 g/ha, scale 0 to 100, 0 is no effect, 100 is complete control
[31] = Flooded Paddy, Rate 500 g/ha, scale 0 to 100
[32] = Flooded Paddy, Rate 1000 g/ha, scale 0 to 100
[33] = preemergence, Rate 125 g/ha, scale of 0 to 100 where 0 is no effect and 100 is complete control, 13 to 15 days

CCC(C)c1ccn(C2SCN(c3cccc(OC(F)(F)F)c3)C2=O)n1 (centres unmarked) [Compound 40]
80: Plant response rating, Pigweed [23, 30]
10: Plant response rating, Morningglory [19, 29]
60: Plant response rating, Morningglory [4, 25] | Plant response rating, Corn (corn (Zea mays) [6]; [25]) | Plant response rating, Surinam grass [9, 26]
100: Plant response rating, Barnyardgrass [1, 25] | Plant response rating, Barnyardgrass [1, 26] | Plant response rating, Rice (rice (Oryza saliva) [2]; [25]) | Plant response rating, Foxtail, Giant [3, 25] | Plant response rating, Crabgrass [8, 25] | Plant response rating, Crabgrass [8, 26] | Plant response rating, Pigweed [10, 25] | Plant response rating, Lambsquarters [11, 25] | Plant response rating, Lambsquarters [11, 26] | Barnyardgrass plant response rating ([12]; Flooded Paddy, Rate 250 g/ha) | Barnyardgrass plant response rating ([12]; Flooded Paddy, Rate 500 g/ha) | Plant response rating, Barnyardgrass [12, 27] | Plant response rating, Barnyardgrass [12, 28] | Flatsedge plant response rating ([14]; Rate 250 g/ha) | Flatsedge plant response rating ([14]; Rate 500 g/ha) | Plant response rating, Flatsedge ([14]; Rate 62 g/ha) | Plant response rating, Flatsedge ([14]; Rate 125 g/ha) | Ducksalad plant response rating ([15]; Flooded Paddy, Rate 250 g/ha) | Ducksalad plant response rating ([15]; Flooded Paddy, Rate 500 g/ha) | Plant response rating, Ducksalad [15, 28] | Plant response rating, Barnyardgrass [16, 30]
0: Plant response rating, Sunflower (Sunflower; Rate 125 g/ha) | Plant response rating, Cocklebur [5, 25] | Plant response rating, Cocklebur [5, 26] | Plant response rating, Corn (corn (Zea mays) [6]; [26]) | Plant response rating, Velvetleaf [7, 25] | Plant response rating, Wheat [17, 29] | Plant response rating, Wheat [17, 30] | Plant response rating, Corn (corn (Zea mays) [20]; [29]) | Plant response rating, Velvetleaf [21, 29] | Plant response rating, Velvetleaf [21, 30] | Plant response rating, Surinam grass [22, 29] | Plant response rating, Surinam grass [22, 30] | Plant response rating, Blackgrass [24, 29] | Plant response rating, Blackgrass [24, 30]
40: Plant response rating (0 to 100), Nightshade (Nightshade; Rate 250 g/ha) | Plant response rating, Rice (rice (Oryza saliva) [13]; [28]) | Plant response rating, Pigweed [23, 29]
20: Plant response rating, Rice (rice (Oryza saliva) [13]; [27]) | Plant response rating, Morningglory [19, 30]
50: Plant response rating, Corn (corn (Zea mays) [20]; [30])
70: Plant response rating, Foxtail, Giant [3, 26] | Rice plant response rating (rice (Oryza saliva) [13]; Flooded Paddy, Rate 250 g/ha) | Plant response rating, Foxtail, Giant [18, 29]
90: Plant response rating, Surinam grass [9, 25] | Rice plant response rating (rice (Oryza saliva) [13]; Flooded Paddy, Rate 500 g/ha) | Plant response rating, Ducksalad [15, 27] | Plant response rating, Barnyardgrass [16, 29] | Plant response rating, Foxtail, Giant [18, 30]

O=C1C(n2ccc(C3CC3)n2)CCN1c1cccc(C(F)(F)F)c1 (centres unmarked) [Compound 8]
70: Plant response rating, Barnyardgrass [1, 25] | Plant response rating, Surinam grass [9, 25] | Plant response rating, Barnyardgrass [12, 31] | Plant response rating, Ducksalad [15, 31]
80: Plant response rating, Rice (rice (Oryza saliva) [13]; [32])
10: Plant response rating, Pigweed [23, 30]
90: Plant response rating, Foxtail, Giant [3, 25] | Plant response rating, Flatsedge ([14]; Rate 125 g/ha)
60: Plant response rating, Rice (rice (Oryza saliva) [13]; [31]) | Rice plant response rating (rice (Oryza saliva) [13]; Flooded Paddy, Rate 250 g/ha)
0: Plant response rating, Sunflower (Sunflower; Rate 125 g/ha) | Plant response rating, Barnyardgrass [1, 26] | Plant response rating, Rice (rice (Oryza saliva) [2]; [25]) | Plant response rating, Rice (rice (Oryza saliva) [2]; [26]) | Plant response rating, Morningglory [4, 25] | Plant response rating, Morningglory [4, 26] | Plant response rating, Cocklebur [5, 25] | Plant response rating, Cocklebur [5, 26] | Plant response rating, Corn (corn (Zea mays) [6]; [25]) | Plant response rating, Corn (corn (Zea mays) [6]; [26]) | Plant response rating, Velvetleaf [7, 25] | Plant response rating, Velvetleaf [7, 26] | Plant response rating, Lambsquarters [11, 26] | Plant response rating (0 to 100), Nightshade (Nightshade; Rate 250 g/ha) | Plant response rating, Barnyardgrass [12, 27] | Plant response rating, Barnyardgrass [12, 28] | Plant response rating, Rice (rice (Oryza saliva) [13]; [27]) | Plant response rating, Rice (rice (Oryza saliva) [13]; [28]) | Plant response rating, Ducksalad [15, 27] | Plant response rating, Barnyardgrass [16, 29] | Plant response rating, Barnyardgrass [16, 30] | Plant response rating, Wheat [17, 29] | Plant response rating, Wheat [17, 30] | Plant response rating, Foxtail, Giant [18, 29] | Plant response rating, Foxtail, Giant [18, 30] | Plant response rating, Morningglory [19, 29] | Plant response rating, Morningglory [19, 30] | Plant response rating, Corn (corn (Zea mays) [20]; [29]) | Plant response rating, Corn (corn (Zea mays) [20]; [30]) | Plant response rating, Velvetleaf [21, 29] | Plant response rating, Velvetleaf [21, 30] | Plant response rating, Surinam grass [22, 29] | Plant response rating, Surinam grass [22, 30] | Plant response rating, Pigweed [23, 29] | Plant response rating, Blackgrass [24, 29] | Plant response rating, Blackgrass [24, 30]
40: Plant response rating, Foxtail, Giant [3, 26] | Barnyardgrass plant response rating ([12]; Flooded Paddy, Rate 250 g/ha) | Ducksalad plant response rating ([15]; Flooded Paddy, Rate 250 g/ha)
100: Plant response rating, Crabgrass [8, 25] | Plant response rating, Pigweed [10, 25] | Plant response rating, Lambsquarters [11, 25] | Plant response rating, Barnyardgrass [12, 32] | Flatsedge plant response rating ([14]; Rate 250 g/ha) | Flatsedge plant response rating ([14]; Rate 500 g/ha) | Flatsedge plant response rating ([14]; rate of this column group stands in head line r653, not shown (group before Rate 500 g/ha)) | Plant response rating, Ducksalad [15, 32]
30: Plant response rating, Crabgrass [8, 26] | Plant response rating, Flatsedge ([14]; Rate 62 g/ha)
20: Plant response rating, Surinam grass [9, 26] | Plant response rating, Pigweed [10, 26] | Plant response rating, Ducksalad [15, 28]

CCCC(C)c1ccn(C2CCN(c3cccc(OC)c3)C2=O)n1 (centres unmarked) [Compound 99]
10: Plant response rating (0 to 100), Nightshade (Nightshade; Rate 500 g/ha)
80: Rice plant response rating (rice (Oryza saliva) [13]; Flooded Paddy, Rate 500 g/ha)
30: Plant response rating, Corn (corn (Zea mays) [6]; [25])
50: Rice plant response rating (rice (Oryza saliva) [13]; Flooded Paddy, Rate 250 g/ha) | Plant response rating, Rice (rice (Oryza saliva) [13]; [28])
0: Plant response rating, Sunflower (Sunflower; Rate 250 g/ha) | Plant response rating, Barnyardgrass [1, 33] | Plant response rating, Rice (rice (Oryza saliva) [2]; [33]) | Plant response rating, Foxtail, Giant [3, 33] | Plant response rating, Morningglory [4, 25] | Plant response rating, Morningglory [4, 33] | Plant response rating, Cocklebur [5, 25] | Plant response rating, Cocklebur [5, 33] | Plant response rating, Corn (corn (Zea mays) [6]; [33]) | Plant response rating, Velvetleaf [7, 25] | Plant response rating, Velvetleaf [7, 33] | Plant response rating, Crabgrass [8, 33] | Plant response rating, Surinam grass [9, 33] | Plant response rating, Pigweed [10, 33] | Plant response rating, Barnyardgrass [12, 27] | Plant response rating, Barnyardgrass [12, 28] | Plant response rating, Rice (rice (Oryza saliva) [13]; [27]) | Plant response rating, Flatsedge ([14]; Rate 62 g/ha) | Ducksalad plant response rating ([15]; Flooded Paddy, Rate 250 g/ha) | Ducksalad plant response rating ([15]; Flooded Paddy, Rate 500 g/ha) | Plant response rating, Ducksalad [15, 27] | Plant response rating, Ducksalad [15, 28] | Plant response rating, Barnyardgrass [16, 29] | Plant response rating, Barnyardgrass [16, 30] | Plant response rating, Wheat [17, 30] | Plant response rating, Foxtail, Giant [18, 29] | Plant response rating, Foxtail, Giant [18, 30] | Plant response rating, Morningglory [19, 30] | Plant response rating, Corn (corn (Zea mays) [20]; [29]) | Plant response rating, Corn (corn (Zea mays) [20]; [30]) | Plant response rating, Velvetleaf [21, 30] | Plant response rating, Surinam grass [22, 29] | Plant response rating, Surinam grass [22, 30] | Plant response rating, Pigweed [23, 30] | Plant response rating, Blackgrass [24, 29] | Plant response rating, Blackgrass [24, 30]
60: Barnyardgrass plant response rating ([12]; Flooded Paddy, Rate 500 g/ha)
100: Plant response rating, Barnyardgrass [1, 25] | Plant response rating, Foxtail, Giant [3, 25] | Plant response rating, Crabgrass [8, 25] | Plant response rating, Pigweed [10, 25] | Plant response rating, Lambsquarters [11, 25] | Plant response rating, Lambsquarters [11, 33] | Flatsedge plant response rating ([14]; Rate 250 g/ha) | Flatsedge plant response rating ([14]; Rate 500 g/ha)
90: Plant response rating, Flatsedge ([14]; Rate 125 g/ha)
20: Plant response rating, Rice (rice (Oryza saliva) [2]; [25]) | Plant response rating, Surinam grass [9, 25] | Barnyardgrass plant response rating ([12]; Flooded Paddy, Rate 250 g/ha)
